Experimental data as given in patent publication US8759333B2, “Di-azetidinyl diamide as monoacylglycerol lipase inhibitors” (Janssen Pharmaceutica, NV, priority 2010, dated 2014).
Positions count from the first letter of the chain named. pIC50, pKd: −log10 of the molar value.

Tests used:
[1] = molecular target: T1, mutant MGL (mut-MGLL 11-313 L179S L186S) (Homo sapiens, UniProt Q99685, L169S/L176S); experiment: MGL Enzyme Activity Assay, purified mutant MGL, 4MU-B substrate; format: biochemical; conditions: mutant MGL 5 nM, 4MU-B 10 μM, 37° C.; read-out: MGL mutant inh IC50
T1 construct: purified mutant MGL (mut-MGLL 11-313 L179S L186S)
T1 sequence (Q99685 1-303 L169S/L176S): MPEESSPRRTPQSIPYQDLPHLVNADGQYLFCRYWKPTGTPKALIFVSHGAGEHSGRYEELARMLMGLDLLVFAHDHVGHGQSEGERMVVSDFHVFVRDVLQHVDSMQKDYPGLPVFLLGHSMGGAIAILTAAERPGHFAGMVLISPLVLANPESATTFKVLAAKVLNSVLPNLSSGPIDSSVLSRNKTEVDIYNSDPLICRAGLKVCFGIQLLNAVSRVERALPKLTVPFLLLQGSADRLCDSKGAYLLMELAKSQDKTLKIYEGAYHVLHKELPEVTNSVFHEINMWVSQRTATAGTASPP
Method: All rate-based assays were performed in black 384-well polypropylene PCR microplates (Abgene) in a total volume of 30 μL. Substrate 4-methylumbelliferyl butyrate (4MU-B; Sigma) and either purified mutant MGL (mut-MGLL 11-313 L179S L186S) or purified wild type MGL (wt-MGLL 6H-11-313) were diluted separately into 20 mM PIPES buffer (pH=7.0), containing 150 mM NaCl and 0.001% Tween 20. Compounds of Formula (I), including Formulas I(a), I(b), and I(c), were pre-dispensed (50 nL) into the assay plate using a Cartesian Hummingbird prior to adding 4MU-B (25 μL of 1.2× solution to a final concentration of 10 μM) followed by enzyme (5 μL of a 6× solution to a final concentration of 5 nM) to initiate the reaction. Final compound concentrations ranged from 17 to 0.0003 μM. The fluorescence change due to 4MU-B cleavage was monitored with excitation and emission wavelengths of 335 and 440 nm, respectively, and a bandwidth of 10 nm (Safire^2, Tecan) at 37° C. for 5 min.
(§1) The IC50 values for the following compounds were determined using Microsoft Office Excel from a fit of the equation to the concentration-response plot of the fractional activity as a function of inhibitor concentration.

MGL = molecular target: T2, MGL (Rattus norvegicus, UniProt Q8R431); experiment: 2-AG Accumulation Assay in rat brain homogenate; format: biochemical; conditions: percent of vehicle; for activity at 10 µM: compound @10 µM, read-out: Rat Brain 2AG % VehCntrl (%) @10 µM; for activity at 1 µM: compound @1 µM, read-out: Rat Brain 2AG % VehCntrl (%) @1 µM
T2 construct: one g rat brain was homogenized using a Polytron homogenizer; from tissue; host or cells: rat brain homogenate
T2 sequence (Q8R431 1-303): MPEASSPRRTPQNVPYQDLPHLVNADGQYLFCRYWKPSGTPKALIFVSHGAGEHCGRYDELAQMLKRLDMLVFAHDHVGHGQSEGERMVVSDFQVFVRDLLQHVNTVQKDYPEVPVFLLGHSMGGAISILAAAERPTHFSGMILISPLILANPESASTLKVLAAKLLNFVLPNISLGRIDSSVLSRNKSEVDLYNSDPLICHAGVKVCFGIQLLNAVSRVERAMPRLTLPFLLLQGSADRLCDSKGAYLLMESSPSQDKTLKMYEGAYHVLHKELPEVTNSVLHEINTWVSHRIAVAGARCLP

[2] = molecular target: T3, wild type MGL (wt-MGLL 6H-11-313) (Homo sapiens, UniProt Q99685); experiment: MGL Enzyme Activity Assay, purified wild type MGL, 4MU-B substrate; format: biochemical; conditions: wild type MGL 5 nM, 4MU-B 10 μM, 37° C.; read-out: MGL wild type inh IC50
T3 construct: purified wild type MGL (wt-MGLL 6H-11-313); 6H (hexahistidine) (N)
T3 sequence (Q99685 1-303): T1 sequence (Q99685 1-303 L169S/L176S) with S169L, S176L
Method: All rate-based assays were performed in black 384-well polypropylene PCR microplates (Abgene) in a total volume of 30 μL. […] Final compound concentrations ranged from 17 to 0.0003 μM.
as §1

mutant MGL = molecular target: T4, mutant MGL (Homo sapiens, UniProt Q99685, L169S/L176S); experiment: MGL ThermoFluor Assay - Mutant; format: binding; conditions: 0.07 mg/ml mutant MGL, 100 μM ANS, pH 7.0
T4 construct: purified mutant MGL (mut-MGLL 11-313 L179S L186S)
T4 sequence (Q99685 1-303 L169S/L176S): T1 sequence (Q99685 1-303 L169S/L176S)
Method: The ThermoFluor (TF) assay is a 384-well plate-based binding assay that measures thermal stability of proteins^1,2. The experiments were carried out using instruments available from Johnson & Johnson Pharmaceutical Research & Development, LLC. TF dye used in all experiments was 1,8-ANS (Invitrogen: A-47). Final TF assay conditions used for MGL studies were 0.07 mg/ml of mutant MGL, 100 μM ANS, 200 mM NaCl, 0.001% Tween-20 in 50 mM PIPES (pH=7.0).
Screening compound plates contained 100% DMSO compound solutions at a single concentration. […] Columns 12 and 24 were used as DMSO reference and contained no compound. […] Following compound dispension, protein and dye solutions were added to achieve the final assay volume of 3 μL.
Bar-coded assay plates were robotically loaded onto a thermostatically controlled PCR-type thermal block and then heated from 40 to 90° C. degrees at a ramp-rate of 1° C./min for all experiments. Fluorescence was measured by continuous illumination with UV light (Hamamatsu LC6), supplied via fiber optics and filtered through a band-pass filter (380-400 nm; >60D cutoff). Fluorescence emission of the entire 384-well plate was detected by measuring light intensity using a CCD camera (Sensys, Roper Scientific) filtered to detect 500±25 nm, resulting in simultaneous and independent readings of all 384 wells. A single image with 20-sec exposure time was collected at each temperature, and the sum of the pixel intensity in a given area of the assay plate was recorded vs temperature and fit to standard equations to yield the Tm^1. • 1.
The Kd values for certain compounds of Formula (I) were determined from a fit of the equation to the concentration-response plot of the fractional activity as a function of […]. For some experiments, quantitative NMR spectroscopy (qNMR) was used to measure concentration of the initial 100% DMSO compound solutions and, using the same fitting method, qKd values were determined.

Structure (SMILES)	pIC50 [1]	activity at 10 µM (MGL) [%]	pIC50 [2]	activity at 1 µM (MGL) [%]	pKd (mutant MGL)
O=C(NC1CN(C2CN(C(=O)c3ccc(Cc4ccccc4)cc3)C2)C1)c1nccs1 [Cpd 10, N-{1′-[(4-Benzylphenyl)carbonyl]-1,3′-biazetidin-3-yl}-1,3-thiazole-2-carboxamide]	7.82	659	7.15		
O=C(NC1CN(C2CN(C(=O)c3ccc4c(ccn4-c4ccc(F)c(F)c4)c3)C2)C1)c1cscn1 [Cpd 54, N-(1′-{[1-(3,4-Difluorophenyl)-1H-indol-5-yl]carbonyl}-1,3′-biazetidin-3-yl)-1,3-thiazole-4-carboxamide]			8.30	315	
O=C(NC1CN(C2CN(C(=O)c3ccc4c(ccn4-c4ccc(F)cc4F)c3)C2)C1)c1nccs1 [Cpd 55, N-(1′-{[1-(2,4-Difluorophenyl)-1H-indol-5-yl]carbonyl}-1,3′-biazetidin-3-yl)-1,3-thiazole-2-carboxamide]			8.30	353	
O=C(NC1CN(C2CN(C(=O)c3ccc4c(ccn4-c4ccc(F)c(F)c4)c3)C2)C1)c1nccs1 [Cpd 57, N-(1′-{[1-(3,4-Difluorophenyl)-1H-indol-5-yl]carbonyl}-1,3′-biazetidin-3-yl)-1,3-thiazole-2-carboxamide]			8.15	424	
O=C(NC1CN(C2CN(C(=O)c3ccc(-c4ccc(C(F)(F)F)cc4)cc3F)C2)C1)c1nccs1 [Cpd 59, N-(1′-{[3-Fluoro-4′-(trifluoromethyl)biphenyl-4-yl]carbonyl}-1,3′-biazetidin-3-yl)-1,3-thiazole-2-carboxamide]			8.00	265	
O=C(NC1CN(C2CN(C(=O)c3ccc4c(ccn4-c4ccc(F)cc4F)c3)C2)C1)c1cscn1 [Cpd 60, N-(1′-{[1-(2,4-Difluorophenyl)-1H-indol-5-yl]carbonyl}-1,3′-biazetidin-3-yl)-1,3-thiazole-4-carboxamide]			7.96	273	
Cc1cn(-c2ccc(F)cc2)c2ccc(C(=O)N3CC(N4CC(NC(=O)c5nccs5)C4)C3)cc12 [Cpd 62, N-(1′-{[1-(4-Fluorophenyl)-3-methyl-1H-indol-5-yl]carbonyl}-1,3′-biazetidin-3-yl)-1,3-thiazole-2-carboxamide]			7.82	334	
Cc1cc(-c2ccc(C(F)(F)F)cc2)ccc1C(=O)N1CC(N2CC(NC(=O)c3nccs3)C2)C1 [Cpd 63, N-(1′-{[3-Methyl-4′-(trifluoromethyl)biphenyl-4-yl]carbonyl}-1,3′-biazetidin-3-yl)-1,3-thiazole-2-carboxamide]			7.54	185	
Cc1c(C(=O)N2CC(N3CC(NC(=O)c4nccs4)C3)C2)sc2cc(Br)ccc12 [Cpd 65, N-{1′-[(6-Bromo-3-methyl-1-benzothiophen-2-yl)carbonyl]-1,3′-biazetidin-3-yl}-1,3-thiazole-2-carboxamide]			> 8.30	324	

The remaining lines, values ahead:

pIC50 [1]	activity at 10 µM (MGL) [%]	pIC50 [2]	activity at 1 µM (MGL) [%]	pKd (mutant MGL)	Structure (SMILES)
		> 8.30	399		Cc1c(C(=O)N2CC(N3CC(NC(=O)c4nccs4)C3)C2)sc2cc(-c3ccccc3)ccc12 [Cpd 66, N-{1′-[(3-Methyl-6-phenyl-1-benzothiophen-2-yl)carbonyl]-1,3′-biazetidin-3-yl}-1,3-thiazole-2-carboxamide]
7.72			166	6.72	CS(=O)(=O)c1cccc(-c2ccc(C(=O)N3CC(N4CC(N5Cc6ccccc6C5=O)C4)C3)cc2)c1 [Cpd 80, 2-(1′-{[3′-(Methylsulfonyl)biphenyl-4-yl]carbonyl}-1,3′-biazetidin-3-yl)-2,3-dihydro-1H-isoindol-1-one]
7.72	409		192	7.80	O=C(c1cc2ccc(C(F)(F)F)cc2s1)N1CC(N2CC(N3Cc4ccccc4C3=O)C2)C1 [Cpd 81, 2-(1′-{[6-(Trifluoromethyl)-1-benzothiophen-2-yl]carbonyl}-1,3′-biazetidin-3-yl)-2,3-dihydro-1H-isoindol-1-one]
7.51	435		152	7.22	O=C(c1ccc2nc(-c3ccccc3)oc2c1)N1CC(N2CC(N3Cc4ccccc4C3=O)C2)C1 [Cpd 84, 2-{1′-[(2-Phenyl-1,3-benzoxazol-6-yl)carbonyl]-1,3′-biazetidin-3-yl}-2,3-dihydro-1H-isoindol-1-one]
7.44	693			7.60	O=C(c1ccc2c(ccn2-c2ccccc2)c1)N1CC(N2CC(N3Cc4ccccc4C3=O)C2)C1 [Cpd 85, 2-{1′-[(1-Phenyl-1H-indol-5-yl)carbonyl]-1,3′-biazetidin-3-yl}-2,3-dihydro-1H-isoindol-1-one]
7.30	250			7.40	O=C(c1cc2ccc(Br)cc2s1)N1CC(N2CC(N3Cc4ccccc4C3=O)C2)C1 [Cpd 87, 2-{1′-[(6-Bromo-1-benzothiophen-2-yl)carbonyl]-1,3′-biazetidin-3-yl}-2,3-dihydro-1H-isoindol-1-one]
> 8.30			208	7.33	O=C(c1sc2cc(F)ccc2c1Cl)N1CC(N2CC(N3Cc4ccccc4C3=O)C2)C1 [Cpd 100, 2-{1′-[(3-Chloro-6-fluoro-1-benzothiophen-2-yl)carbonyl]-1,3′-biazetidin-3-yl}-2,3-dihydro-1H-isoindol-1-one]
		> 8.30	414		O=C(c1ccc2c(ccn2-c2ccc(C(F)(F)F)cc2)c1)N1CC(N2CC(N3Cc4scnc4C3=O)C2)C1 [Cpd 106, 5-[1′-({1-[4-(Trifluoromethyl)phenyl]-1H-indol-5-yl}carbonyl)-1,3′-biazetidin-3-yl]-5,6-dihydro-4H-pyrrolo[3,4-d][1,3]thiazol-4-one]
